Measurements reported in US10544138B2, “Tricyclic kinase inhibitors of MELK and methods of use” (Dana-Farber Cancer Institute, Inc., priority 2015, dated 2020).
“And” between values parts separate entries of the source, which are not always exact repeats. Equal entries are not always repeated. “Also recorded” adds a separate entry of the source.

Tests used:
MELK [1] = target: T1, MELK (Homo sapiens, UniProt Q14680); test: Electrophoretic mobility (auto-phosphorylation) of MELK in nocodazole-arrested mitotic cells, immunoblotting; assay type: cell-based; details: nocodazole-arrested mitotic cells (HeLa, MDA-MB-231), 30 min, increasing concentration
Description: (§1) […] assays were performed with recombinant protein of the indicated mitotic kinase (left) and AMPK family kinases (right) in the presence of THZ-4-63-1. […] Cells were treated with nocodazole (100 ng/ml) for 18 h or not treated (Asyn., asynchronous). Nocodazole-arrested mitotic cells (M) were isolated via shake-off. The attached cells enriched in G2 phase (G2) were harvested. A portion of the mitotic cells were washed off nocodazole and released into G1 phase after 4 hours of incubation (G1). […] In Panel D, mitotic lysates were prepared from the indicated cells, and treated with λ-phosphatase at 30° C. In Panel E, nocodazole-arrested mitotic cells were treated with increasing concentration of THZ-4-63-1 for 30 min. Cell lysates were subjected to immunoblotting.
Cell lysates were subjected to immunoblotting. […] The fluorescent signals of immunblotting were quantified using Image Studio Lite software (Licor Biosciences, Lincoln, Neb.). The signal of phosphorylated Aurora kinases was normalized to that of loading control (α-tubulin).
We next proceeded to test if THZ-4-63-1 inhibits MELK activity in vivo. With a lack of established kinase substrates of MELK during mitosis, we used the auto-phosphorylation of MELK as a surrogate to indicate the activity of MELK. […] We then harvested nocodazole-arrested mitotic cells, and treated cells with increasing concentrations of THZ-4-63-1.

[2] = test system: Cyclin B1, MELK, and Aurora B; test: Spindle assembly checkpoint signaling, abundance of mitotic factors by immunoblotting; assay type: cell-based; details: nocodazole- or paclitaxel-arrested cells
Description: (§2) Mitotic cells were treated with THZ-4-63-1 at indicated concentrations for 4 h. Cells were collected for immunoblotting. Panel B contains time-lapse images of U2OS-(H2B-GFP) cells treated with THZ-4-63-1 (5 μM). […] Panel C contains blots showing proteasome-mediated degradation of Cyclin B1, Aurora B and MELK in THZ-4-63-1-induced mitotic slippage. Mitotic cells were treated as in Panel A with THZ-4-63-1 (5 μM), or MG132 (10 μM), or both for 4 h. Panel D contains a graph showing quantification of cell proliferation in the indicated breast cancer cell lines, which were treated with vehicle control or THZ-4-63-1 for one week (Top) and also contains bright-field images acquired from control cells or cells treated with THZ-4-63-1 (111 nM) (Bottom). […] Cells were treated with indicated drugs, and harvested in ten days for quantification of cell growth. The bold curve depicts the theoretic prediction of an additive action between paclitaxel and THZ-4-63-1.
In Panel A, paclitaxel-arrested cells were treated with THZ-4-63-1 at indicated concentrations for 4 h. Cells were collected for immunoblotting. In Panel B, nocodazole- (top) or paclitaxel-arrested mitotic cells were treated with vehicle control or THZ-4-63-1 (5 μM) for increasing time. Cell lysates were collected for immunoblotting. […]

[3] = test system: basal breast cancer cells; test: Proliferation of basal breast cancer cells; assay type: cell-based
Description: as §2
With the identification of a selective MELK inhibitor, we next tested if THZ-4-63-1 is an effective agent for those cancer cells. […] The high potency of THZ-4-63-1 not only confirm the previous identification of MELK as an essential kinase for breast cancer, but also poise the compound itself for immediate translational implications.

MDA-MB-468 = test: Cell growth with paclitaxel combination in MDA-MB-468; assay type: cell-based, human; details: THZ-4-63-1 33.3 or 66.6 nM plus paclitaxel 2 nM
Description: as §2
Because microtubule-targeting chemotherapy is the mainstay of treatment for many types of cancer including basal-like breast cancer, we asked if MELK inhibition could combine with drugs that impair microtubule dynamics. […]

MELK [4] = target: T1, MELK; test: Z′-LYTE biochemical assay, MELK inhibition; design: purchased Life Technologies; details: 25 uM ATP concentration; read-out: MELK IC50 as determined by Z′-LYTE biochemical assay
Description: The invention also provides methods for inhibiting MELK, comprising contacting MELK with a compound of the invention in an amount effective to inhibit MELK. In certain embodiments, the method is conducted in vitro. In certain embodiments, the method is conducted in vivo. Inhibition of MELK can be determined by the Z′-LYTE® biochemical assay from Life Technologies (Life Technologies Z′-LYTE® Screening Protocol and Assay Conditions, June 2012, incorporated herein by reference).
Generally, IC50 against MELK was determined by Z′-LYTE® biochemical assay and are measured in nM at 25 uM ATP concentration.

MARK1 = MARK1 (Homo sapiens, UniProt Q9P0L2); test: Recombinant AMPK family kinase assay, MARK1; assay type: biochemical; details: recombinant kinases
Description: as §1
To discover a selective MELK inhibitor, a few molecule scaffolds with the potential of binding to MELK were identified, including 2,4-disubstituted pyrimidines and benzonaphthyridinones. […] To investigate if THZ-4-63-1 confers selective inhibition on MELK, we tested its effect on other mitotic kinases. In assays using recombinant kinases, MELK kinase activity was 20-fold more sensitive to THZ-4-63-1, than that of Aurora A, Aurora B, CDK1, or PLK1 (FIG. 1B).

T1 sequence (Q14680 whole entry): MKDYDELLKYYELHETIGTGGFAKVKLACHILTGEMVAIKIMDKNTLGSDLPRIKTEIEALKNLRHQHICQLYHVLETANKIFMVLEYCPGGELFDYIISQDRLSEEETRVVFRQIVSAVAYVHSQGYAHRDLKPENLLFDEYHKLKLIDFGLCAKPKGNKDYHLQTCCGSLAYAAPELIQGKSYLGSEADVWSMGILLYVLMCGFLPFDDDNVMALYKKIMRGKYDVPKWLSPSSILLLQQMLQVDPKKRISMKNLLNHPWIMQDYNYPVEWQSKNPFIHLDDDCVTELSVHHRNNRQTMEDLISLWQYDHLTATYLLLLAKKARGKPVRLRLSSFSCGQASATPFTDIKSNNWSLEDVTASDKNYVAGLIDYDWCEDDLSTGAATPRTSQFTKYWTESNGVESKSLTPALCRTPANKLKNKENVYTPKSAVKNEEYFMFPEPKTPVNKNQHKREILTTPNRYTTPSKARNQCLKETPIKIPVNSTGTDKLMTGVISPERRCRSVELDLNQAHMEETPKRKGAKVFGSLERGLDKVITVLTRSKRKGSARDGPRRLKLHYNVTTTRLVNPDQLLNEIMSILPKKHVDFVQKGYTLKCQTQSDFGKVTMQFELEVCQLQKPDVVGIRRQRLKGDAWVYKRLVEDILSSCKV
Chain of MARK1 (Q9P0L2 whole entry, species assumed): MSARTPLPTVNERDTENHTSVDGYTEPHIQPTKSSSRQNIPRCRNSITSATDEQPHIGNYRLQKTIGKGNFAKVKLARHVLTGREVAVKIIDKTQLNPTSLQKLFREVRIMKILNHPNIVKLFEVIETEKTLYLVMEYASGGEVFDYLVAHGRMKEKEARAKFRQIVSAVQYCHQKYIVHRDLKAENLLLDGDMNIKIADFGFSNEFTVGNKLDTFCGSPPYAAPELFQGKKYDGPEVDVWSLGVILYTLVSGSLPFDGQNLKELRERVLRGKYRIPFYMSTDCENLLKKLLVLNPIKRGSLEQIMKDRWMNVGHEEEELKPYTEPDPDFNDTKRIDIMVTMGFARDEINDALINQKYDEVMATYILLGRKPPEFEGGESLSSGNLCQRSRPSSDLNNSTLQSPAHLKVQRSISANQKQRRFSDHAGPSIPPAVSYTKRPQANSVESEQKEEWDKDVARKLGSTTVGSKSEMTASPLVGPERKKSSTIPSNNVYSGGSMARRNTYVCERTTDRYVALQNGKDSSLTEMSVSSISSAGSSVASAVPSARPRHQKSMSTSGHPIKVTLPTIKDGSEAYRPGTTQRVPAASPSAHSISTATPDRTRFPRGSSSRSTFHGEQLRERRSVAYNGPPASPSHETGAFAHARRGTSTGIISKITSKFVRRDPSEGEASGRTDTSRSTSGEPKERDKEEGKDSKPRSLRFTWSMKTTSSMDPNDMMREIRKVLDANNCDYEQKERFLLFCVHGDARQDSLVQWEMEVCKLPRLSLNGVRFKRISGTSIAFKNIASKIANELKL

- IC50 ([3]; 168 h, treated one week): ~50 nM
- IC50 (MELK [4]): 10.8 nM and 10.5 nM
- Selectivity for MELK over MARK1 (MARK1): preferentially targets MELK
Compound: CN(C)Cc1ccc(-n2c(=O)ccc3cnc4ccc(-c5cc(Cl)c(O)c(Cl)c5)cc4c32)cc1 [THZ-4-63-1]
- Electrophoretic mobility of mitotic MELK (MELK [1]): increases the electrophoretic mobility of mitotic MELK; also recorded: readily altered the mobility shift in a dose-dependent manner
- Protein amount of mitotic factors (Cyclin B1, MELK, Aurora B) [2]: efficiently reduced the protein amount of these mitotic factors
- Cell death at low nanomolar dose ([3]; basal breast cancer cells): nearly complete cell death
- Inhibition of cell growth, combined with paclitaxel (MDA-MB-468): ≥ 80%
